Like-named read-outs stand apart in the source and are kept apart here.
Columns and labels:
erythrocyte AChE [1] = molecular target: T1, erythrocyte AChE (Homo sapiens, UniProt P22303); experiment: biochemical; assay type: biochemical; parameters: from tissue; host or cells: human whole peripheral blood (erythrocytes), K2EDTA anticoagulant
Description: Ethanol (UPLC/MS grade) was ordered from Biosolve (Valkenswaard, The Netherlands). Ultrapure water used for experiments was prepared with a Sartorius Arium Pro ultrapure water system (Göttingen, Germany). Human whole peripheral blood with K2EDTA as an anticoagulant was used for the in vitro AChE inhibition assay. K2EDTA acts as an inhibitor to the paraoxonase 1 (PON1) enzyme,[23] preventing the underestimation of the inhibition potential of organophosphate oxons due to the nontarget clearance by PON1 present in the blood samples.
Inhibition of erythrocyte AChE by the organophosphate oxon or the corresponding oxon metabolite of an organothiophosphate was measured in vitro using the method previously described.[12] The ethanolic stock solution of the test oxon was first diluted 100 times with sodium phosphate buffer (100 mM, pH 7.4), and 10 μL of the diluted solution was added to 90 μL of human whole blood sample in a 48-wells flat-bottom transparent plate (Greiner Bio-One, The Netherlands). After a 30 min incubation at room temperature, the blood samples were then diluted 20 times with ultrapure water containing 0.03% Triton-X 100 (v/v), and 20 μL of the Triton-diluted blood was incubated for 20 min following the addition of 460 μL of DTNB and 20 μL of ethopropazine (an inhibitor to plasma butyrylcholinesterase (BuChE)). After that, 100 μL of ATC was added (final concentrations of ethopropazine, DTNB, and ATC were 20 μM, 1 mM, and 1 mM, respectively), and the absorbance at 436 nm was measured continuously to detect the remaining AChE activity. Controls were carried out by replacing the test compound with sodium phosphate buffer to correct for any background absorbance.
The benchmark response (BMR) of 5% for erythrocyte AChE inhibition is a conservative end point for deriving an effect level, since regulatory bodies usually use a higher BMR (i.e., 10% or 20%) for risk assessment of acute OP pesticide exposure.[24],[25] The European Food Safety Authority (EFSA) Web tool (https://efsa.openanalytics.eu/) integrated with the R package PROAST (version 70.0) was employed for the BMC analysis (see Supporting Information).

erythrocyte AChE [2] = molecular target: T1, erythrocyte AChE; parameters: from tissue; host or cells: human whole peripheral blood (erythrocytes), K2EDTA anticoagulant; method as in PMID 38008925; details: human blood; read-out: IC50, erythrocyte AChE inhibition; cited from earlier work
[3] = QSAR-based prediction; ref Punt et al. 2022; Moerenhout et al. 2024; cited from earlier work
erythrocyte AChE [4] = molecular target: T1, erythrocyte AChE; experiment: Exposure Activity Ratio (EAR) and Dietary Comparator Ratio (DCR) calculation; parameters: from tissue; host or cells: human whole peripheral blood (erythrocytes), K2EDTA anticoagulant; details: for calculated DCR value / calculated EARtest value: human
Description: The DCR value for an exposure scenario was calculated as the ratio of EARtest and EARcomparator (eq 1). The EARtest is scenario-specific and was defined with the IC50 of the tested organophosphate oxon for in vitro erythrocyte AChE inhibition and the PBK model-simulated CBmaxoxon at the defined exposure level (eq 2).
The DCR-based predictions were evaluated by comparing the obtained DCR results with actual knowledge of the adverse health effects reported for the respective exposure scenarios. Adverse effects cannot be ruled out for human exposure scenarios with a DCR result greater than 1, while exposure scenarios with a DCR result less than or equal to 1 are considered to raise no safety concern.[18]−[20] Once validated as an adequate predicting tool, the DCR approach was applied for evaluating the safety of exposure scenarios, for which no information on the resulting toxic outcomes was reported at the defined dose levels for humans.

erythrocyte AChE [5] = molecular target: T1, erythrocyte AChE; details: cited from earlier work; for reported or expected adverse health outcome: ref Table S2
[6] = 1 mg/kg BW single oral, a volunteer, ref APVMA. 2000 (original data of Brown. 1966)
[7] = human whole blood, BMC analysis, PROAST model averaging

T1 sequence (P22303 32-617 isoform P22303-2 limits assumed): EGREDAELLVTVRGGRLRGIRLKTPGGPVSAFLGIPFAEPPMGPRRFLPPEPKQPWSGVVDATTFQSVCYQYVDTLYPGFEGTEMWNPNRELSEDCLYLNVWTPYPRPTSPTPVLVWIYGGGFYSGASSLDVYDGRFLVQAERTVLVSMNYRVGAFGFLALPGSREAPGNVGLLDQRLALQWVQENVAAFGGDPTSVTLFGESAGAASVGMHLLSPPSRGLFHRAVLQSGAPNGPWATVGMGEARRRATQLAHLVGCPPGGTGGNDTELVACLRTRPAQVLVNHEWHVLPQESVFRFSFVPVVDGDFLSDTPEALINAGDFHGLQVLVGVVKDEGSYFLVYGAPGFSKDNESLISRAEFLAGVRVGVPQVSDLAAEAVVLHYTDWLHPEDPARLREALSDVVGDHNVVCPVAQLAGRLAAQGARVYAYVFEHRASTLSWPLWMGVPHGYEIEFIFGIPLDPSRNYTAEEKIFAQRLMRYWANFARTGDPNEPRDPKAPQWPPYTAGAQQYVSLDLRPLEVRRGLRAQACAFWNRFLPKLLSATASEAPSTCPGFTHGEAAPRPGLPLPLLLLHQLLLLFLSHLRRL

CCOP(=O)(OCC)Oc1cc(C)nc(C(C)C)n1 [diazoxon]
IC50 (erythrocyte AChE [1]): 1820 nM

COP(=O)(OC)Oc1ccc([N+](=O)[O-])c(C)c1 [fenitrooxon]
IC50 (erythrocyte AChE [2]): 840 nM

CCOP(=O)(OCC)OC(=CCl)c1ccc(Cl)cc1Cl [chlorfenvinphos]
Oral absorption rate constant [3]: 0.81 h⁻¹
calculated DCR value (erythrocyte AChE [4]; single oral 0.04 mg/kg BW): 3.8 × 10^–3
calculated EARtest value (erythrocyte AChE [4]; single oral 0.04 mg/kg BW): 1.5 × 10^–4
calculated EARtest value (erythrocyte AChE [4]; single oral 0.18 mg/kg BW): 6.8 × 10^–4
calculated DCR value (erythrocyte AChE [4]; single oral 1 mg/kg BW): 0.098
calculated EARtest value (erythrocyte AChE [4]; single oral 1 mg/kg BW): 3.9 × 10^–3
Reported concomitant effects (signs and symptoms) (erythrocyte AChE [5]; 0.04 mg/kg BW (3 mg), first dose of repeated exposure study, male volunteers, ref APVMA. 2000 (original data of Hunter et al. 1972)): No toxic signs was observed
Erythrocyte AChE inhibition (erythrocyte AChE [5]; [6]): 40%
Reported concomitant effects (signs and symptoms) (erythrocyte AChE [5]; [6]): no toxic signs
Reported erythrocyte AChE activity/inhibition (erythrocyte AChE [5]; [6]): Decreased erythrocyte AChE
reported or expected adverse health outcome (erythrocyte AChE [5]; human, single oral 0.04 mg/kg BW, 0.04 mg/kg): negative
reported or expected adverse health outcome (erythrocyte AChE [5]; human, single oral 0.04 mg/kg BW, listed as Chlorfenvinphos, 0.04 mg/kg): No
reported or expected adverse health outcome (erythrocyte AChE [5]; human, single oral 1 mg/kg BW, listed as Chlorfenvinphos, 1 mg/kg): No

CCCSP(=O)(OCC)Oc1ccc(Br)cc1Cl (stereo not shown) [profenofos]
Oral absorption rate constant [3]: 0.90 h⁻¹
calculated DCR value (erythrocyte AChE [4]; single oral 1600 mg/kg BW): 272
calculated EARtest value (erythrocyte AChE [4]; single oral 1600 mg/kg BW): 10.75
Reported concomitant effects (signs and symptoms) (erythrocyte AChE [5]; 1600 mg/kg BW (112 g) acute oral, person, ref Seno et al. 1998): Died
reported or expected adverse health outcome (erythrocyte AChE [5]; human, single oral 1600 mg/kg BW, 1600 mg/kg): positive
reported or expected adverse health outcome (erythrocyte AChE [5]; human, single oral 1600 mg/kg BW, listed as Profenofos, 1600 mg/kg): Yes
IC50 (erythrocyte AChE [1]): 94500 nM

COP(=S)(OC)Oc1ccc([N+](=O)[O-])cc1 [methyl parathion]
Oral absorption rate constant [3]: 0.58 h⁻¹
calculated DCR value (erythrocyte AChE [4]; single oral 0.003 mg/kg BW): 0.092
calculated EARtest value (erythrocyte AChE [4]; single oral 0.003 mg/kg BW): 3.6 × 10^–3
calculated DCR value (erythrocyte AChE [4]; single oral 0.029 mg/kg BW): 0.89
calculated EARtest value (erythrocyte AChE [4]; single oral 0.029 mg/kg BW): 0.035
calculated DCR value (erythrocyte AChE [4]; single oral 0.057 mg/kg BW): 1.8
calculated EARtest value (erythrocyte AChE [4]; single oral 0.057 mg/kg BW): 0.069
calculated DCR value (erythrocyte AChE [4]; single oral 0.30 mg/kg BW): 9.2
calculated EARtest value (erythrocyte AChE [4]; single oral 0.30 mg/kg BW): 0.36
calculated DCR value (erythrocyte AChE [4]; single oral 26 mg/kg BW): 927
calculated EARtest value (erythrocyte AChE [4]; single oral 26 mg/kg BW): 36.59
reported blood concentration (erythrocyte AChE [5]; 286 mg/kg BW (20 g) acute oral, person, ref Luzhnikov et al. 1977): 3 mg/L
reported or expected adverse health outcome (erythrocyte AChE [5]; human, single oral 0.003 mg/kg BW, 0.003 mg/kg): negative
reported or expected adverse health outcome (erythrocyte AChE [5]; human, single oral 0.003 mg/kg BW, listed as Methyl parathion, 0.003 mg/kg): No
reported or expected adverse health outcome (erythrocyte AChE [5]; human, single oral 0.029 mg/kg BW, 0.029 mg/kg): negative
reported or expected adverse health outcome (erythrocyte AChE [5]; human, single oral 0.029 mg/kg BW, listed as Methyl parathion, 0.029 mg/kg): No
reported or expected adverse health outcome (erythrocyte AChE [5]; human, single oral 0.057 mg/kg BW, 0.057 mg/kg): negative
reported or expected adverse health outcome (erythrocyte AChE [5]; human, single oral 0.057 mg/kg BW, listed as Methyl parathion, 0.057 mg/kg): No
reported or expected adverse health outcome (erythrocyte AChE [5]; human, single oral 0.30 mg/kg BW, 0.3 mg/kg): negative
reported or expected adverse health outcome (erythrocyte AChE [5]; human, single oral 0.30 mg/kg BW, listed as Methyl parathion, 0.3 mg/kg): No
reported or expected adverse health outcome (erythrocyte AChE [5]; human, single oral 26 mg/kg BW, 26 mg/kg): positive
reported or expected adverse health outcome (erythrocyte AChE [5]; human, single oral 26 mg/kg BW, listed as Methyl parathion, 26 mg/kg): Yes

CCOP(=S)(OCC)Oc1nc(Cl)c(Cl)cc1Cl [chlorpyrifos]
Oral absorption rate constant [3]: 1.01 h⁻¹
calculated DCR value (erythrocyte AChE [4]; single oral 0.01 mg/kg BW): 4.6 × 10^–3
calculated EARtest value (erythrocyte AChE [4]; single oral 0.01 mg/kg BW): 1.8 × 10^–4
calculated EARtest value (erythrocyte AChE [4]; single oral 0.012 mg/kg BW): 2.2 × 10^–4
calculated DCR value (erythrocyte AChE [4]; single oral 0.03 mg/kg BW): 0.014
calculated EARtest value (erythrocyte AChE [4]; single oral 0.03 mg/kg BW): 5.4 × 10^–4
calculated DCR value (erythrocyte AChE [4]; single oral 0.1 mg/kg BW): 0.046
calculated EARtest value (erythrocyte AChE [4]; single oral 0.1 mg/kg BW): 1.8 × 10^–3
calculated DCR value (erythrocyte AChE [4]; single oral 0.5 mg/kg BW): 0.23
calculated EARtest value (erythrocyte AChE [4]; single oral 0.5 mg/kg BW): 9.2 × 10^–3
calculated DCR value (erythrocyte AChE [4]; single oral 1 mg/kg BW): 0.48
calculated EARtest value (erythrocyte AChE [4]; single oral 1 mg/kg BW): 0.019
calculated DCR value (erythrocyte AChE [4]; single oral 2 mg/kg BW): 1.0
calculated EARtest value (erythrocyte AChE [4]; single oral 2 mg/kg BW): 0.040
calculated DCR value (erythrocyte AChE [4]; single oral 214 mg/kg BW): 38
calculated EARtest value (erythrocyte AChE [4]; single oral 214 mg/kg BW): 1.50
calculated DCR value (erythrocyte AChE [4]; single oral 300 mg/kg BW): 40
calculated EARtest value (erythrocyte AChE [4]; single oral 300 mg/kg BW): 1.58
no-observed-adverse-effect level (NOAEL) for toxic signs and symptoms (erythrocyte AChE [5]; human volunteers, fasted overnight, single oral dose): 2 mg/kg BW
inhibition of erythrocyte AChE (erythrocyte AChE [5]; human, in vivo, po, 2 mg/kg): 28%
Erythrocyte AChE inhibition (erythrocyte AChE [5]; human, in vivo): 28%
reported or expected adverse health outcome (erythrocyte AChE [5]; human, single oral 0.01 mg/kg BW, 0.01 mg/kg): negative
reported or expected adverse health outcome (erythrocyte AChE [5]; human, single oral 0.01 mg/kg BW, listed as Chlorpyrifos, 0.01 mg/kg): No
reported or expected adverse health outcome (erythrocyte AChE [5]; human, single oral 0.012 mg/kg BW, 0.012 mg/kg): negative
reported or expected adverse health outcome (erythrocyte AChE [5]; human, single oral 0.012 mg/kg BW, listed as Chlorpyrifos, 0.012 mg/kg): No
reported or expected adverse health outcome (erythrocyte AChE [5]; human, single oral 0.03 mg/kg BW, 0.03 mg/kg): negative
reported or expected adverse health outcome (erythrocyte AChE [5]; human, single oral 0.03 mg/kg BW, listed as Chlorpyrifos, 0.03 mg/kg): No
reported or expected adverse health outcome (erythrocyte AChE [5]; human, single oral 0.1 mg/kg BW, 0.1 mg/kg): negative
reported or expected adverse health outcome (erythrocyte AChE [5]; human, single oral 0.1 mg/kg BW, listed as Chlorpyrifos, 0.1 mg/kg): No
reported or expected adverse health outcome (erythrocyte AChE [5]; human, single oral 0.5 mg/kg BW, 0.5 mg/kg): negative
reported or expected adverse health outcome (erythrocyte AChE [5]; human, single oral 0.5 mg/kg BW, listed as Chlorpyrifos, 0.5 mg/kg): No
reported or expected adverse health outcome (erythrocyte AChE [5]; human, single oral 1 mg/kg BW, 1 mg/kg): negative
reported or expected adverse health outcome (erythrocyte AChE [5]; human, single oral 1 mg/kg BW, listed as Chlorpyrifos, 1 mg/kg): No
reported or expected adverse health outcome (erythrocyte AChE [5]; human, single oral 2 mg/kg BW, listed as Chlorpyrifos, 2 mg/kg): No
reported or expected adverse health outcome (erythrocyte AChE [5]; human, single oral 214 mg/kg BW, 214 mg/kg): positive
reported or expected adverse health outcome (erythrocyte AChE [5]; human, single oral 214 mg/kg BW, listed as Chlorpyrifos, 214 mg/kg): Yes
reported or expected adverse health outcome (erythrocyte AChE [5]; human, single oral 300 mg/kg BW, 300 mg/kg): positive
reported or expected adverse health outcome (erythrocyte AChE [5]; human, single oral 300 mg/kg BW, listed as Chlorpyrifos, 300 mg/kg): Yes

CCOP(=O)(OCC)Oc1nc(Cl)c(Cl)cc1Cl [chlorpyrifos oxon]
EARcomparator (erythrocyte AChE [4]; BMCL05/IC50 of chlorpyrifos oxon): 0.039
BMCL05 (lower 95% confidence limit of benchmark concentration for 5% erythrocyte AChE inhibition) (erythrocyte AChE [1]; [7]): 0.015 µM
BMCU05 (upper 95% confidence limit of benchmark concentration for 5% erythrocyte AChE inhibition) (erythrocyte AChE [1]; [7]): 0.10 µM

From article PMC11966747, “Next Generation Risk Assessment of Acute Neurotoxicity from Organophosphate Exposures Using the In Vitro–In Silico Derived Dietary Comparator Ratio” (Environmental Science & Technology, 2025)
